Earlier results, collected in publication PMC7904743, “WIDOCK: a reactive docking protocol for virtual screening of covalent inhibitors” (Journal of Computer-Aided Molecular Design, 2021).
Like-named read-outs stand apart in the source and are kept apart here.

Tests used:
OTUB2 = settings: experimental actives if % labeling higher than 50%; cited from earlier work
NUDT7 = settings: protein labeling at 200 μM; experimental actives if % labeling higher than 50%; cited from earlier work
[1] = thiol reactivity, cited from earlier work
[2] = natural log of average rate constant k
[3] = natural logarithm of average rate constant

Structure (SMILES) | OTUB2 % labeling (OTUB2) [%] | NUDT7 % labeling (NUDT7) [%] | ln(avg k) [1, 2] | ln(avg k) [1, 3]
O=C(CCl)NC(=O)NCc1ccccc1 [PCM-0102122, O=C(CCl)NC(=O)NCc1ccccc1] | 0 | 0 | -16.001 | -16.001
O=C(CCl)N1CCc2sccc2C1 [PCM-0102123, O=C(CCl)N1CCc2sccc2C1] | 39 | 14 | -15.106 | -15.106
O=C(CCl)N1CCN(c2ccc(Cl)cc2[N+](=O)[O-])CC1 [PCM-0102125, O=C(CCl)N1CCN(c2ccc(Cl)cc2[N+](=O)[O-])CC1] | 0 | 29 | -15.501 | -15.501
O=C(CCl)Nc1nc2ccc(Br)cc2s1 [PCM-0102126, O=C(CCl)Nc1nc2ccc(Br)cc2s1] | 12 | 100 | -16.235 | -16.235
O=C(CCl)Nc1ccc(Cl)cc1C(=O)O [PCM-0102127, O=C(CCl)Nc1ccc(Cl)cc1C(=O)O] | 10 | 0 | -16.749 | -16.749
CC(NC(=O)CCl)c1ccccc1 (centres unmarked) [PCM-0102128, CC(NC(=O)CCl)c1ccccc1] | 42 | 13 | -16.398 | -16.398
CC(=O)N1CCc2cc(NC(=O)CCl)ccc21 [PCM-0102129, CC(=O)N1CCc2cc(NC(=O)CCl)ccc21] | 31 | 7 | -15.858 | -15.858
Cc1c(Cl)cccc1NC(=O)CCl [PCM-0102130, Cc1c(Cl)cccc1NC(=O)CCl] | 0 | 0 | -15.962 | -15.962
Cc1ccc(-n2nc(C)c(NC(=O)CCl)c2C)cc1 [PCM-0102131, Cc1ccc(-n2nc(C)c(NC(=O)CCl)c2C)cc1] | 0 | 0 | -16.325 | -16.325
O=C(CCl)N1CCN(CC(=O)N2CCOCC2)CC1 [PCM-0102133, O=C(CCl)N1CCN(CC(=O)N2CCOCC2)CC1] | 15 | 0 | -15.992 | -15.992
Cc1cc([N+](=O)[O-])ccc1NC(=O)CCl [PCM-0102134, Cc1cc([N+](=O)[O-])ccc1NC(=O)CCl] | 11 | 10 | -16.240 | -16.240
O=C(CCl)NC1CCS(=O)(=O)C1 (centres unmarked) [PCM-0102138, O=C(CCl)NC1CCS(=O)(=O)C1] | 0 | 0 | -15.936 | -15.936
O=C1CN(C(=O)CCl)C2(CCCCC2)C(=O)N1 [PCM-0102139, O=C1CN(C(=O)CCl)C2(CCCCC2)C(=O)N1] | 5 | 22 | -15.673 | -15.673
COc1ccc(NC(=O)CCl)cn1 [PCM-0102140, COc1ccc(NC(=O)CCl)cn1] | 0 | 0 | -13.166 | -13.166
CS(=O)(=O)c1ccccc1NC(=O)CCl [PCM-0102141, CS(=O)(=O)c1ccccc1NC(=O)CCl] | 0 | 0 | -16.264 | -16.264
O=C(CCl)NNC(=O)c1cc2c(s1)CCCC2 [PCM-0102142, O=C(CCl)NNC(=O)c1cc2c(s1)CCCC2] | 100 | 9 | -16.868 | -16.868
Cc1c(C#N)c(NC(=O)CCl)n(-c2cccc(F)c2)c1C [PCM-0102146, Cc1c(C#N)c(NC(=O)CCl)n(-c2cccc(F)c2)c1C] | 10 | 58 | -15.589 | -15.589
N#CCc1ccc(NC(=O)CCl)cc1 [PCM-0102148, N#CCc1ccc(NC(=O)CCl)cc1] | 43 | 10 | -15.302 | -15.302

Structure (SMILES) | OTUB2 % labeling (OTUB2) [%] | NUDT7 % labeling (NUDT7) [%] | ln(avg k) [1, 2] | ln(avg k) [1, 3]
O=C(CCl)NCc1ccccc1F [PCM-0102149, O=C(CCl)NCc1ccccc1F] | 62 | 0 | -16.082 | -16.082
O=C(CCl)N1CCC(c2ccccc2)=N1 [PCM-0102150, O=C(CCl)N1CCC(c2ccccc2)=N1] | 0 | 0 | -14.898 | -14.898
O=C(CCl)Nc1ccccc1Cl [PCM-0102152, O=C(CCl)Nc1ccccc1Cl] | 20 | 0 | -16.303 | -16.303
O=C(CCl)NC(=O)OCc1ccccc1 [PCM-0102153, O=C(CCl)NC(=O)OCc1ccccc1] | 79 | 0 | -16.245 | -16.245
O=C(CCl)Nc1cccc(I)c1 [PCM-0102154, O=C(CCl)Nc1cccc(I)c1] | 49 | 24 | -15.790 | -15.790
O=C(CCl)N(CC(F)(F)F)c1ccc(Cl)cc1 [PCM-0102155, O=C(CCl)N(CC(F)(F)F)c1ccc(Cl)cc1] | 0 | 79 | -15.883 | -15.883
COc1ccc(NC(=O)CCl)cc1 [PCM-0102156, COc1ccc(NC(=O)CCl)cc1] | 52 | 0 | -15.521 | -15.521
CC(NC(=O)CCl)C1CC1 (centres unmarked) [PCM-0102157, CC(NC(=O)CCl)C1CC1] | 10 | 0 | -17.112 | -17.112
O=C(CCl)Nc1ccccc1F [PCM-0102158, O=C(CCl)Nc1ccccc1F] | 51 | 0 | -16.146 | -16.146
O=C(CCl)N1c2ccccc2NC(=O)C12CCCC2 [PCM-0102159, O=C(CCl)N1c2ccccc2NC(=O)C12CCCC2] | 0 | 18 | -14.824 | -14.824
O=C(CCl)N1CCc2ccccc21 [PCM-0102160, O=C(CCl)N1CCc2ccccc21] | 0 | 0 | -15.869 | -15.869
NS(=O)(=O)c1cccc(NC(=O)CCl)c1 [PCM-0102162, NS(=O)(=O)c1cccc(NC(=O)CCl)c1] | 58 | 0 | -15.171 | -15.171
O=C(CCl)Nc1ccc(O)cc1 [PCM-0102163, O=C(CCl)Nc1ccc(O)cc1] | 16 | 0 | -15.989 | -15.989
NC(=O)c1c(NC(=O)CCl)sc2c1CCC2 [PCM-0102164, NC(=O)c1c(NC(=O)CCl)sc2c1CCC2] | 0 | 28 | -15.581 | -15.581
Cc1cc(S(N)(=O)=O)cc(NC(=O)CCl)c1C [PCM-0102165, Cc1cc(S(N)(=O)=O)cc(NC(=O)CCl)c1C] | 12 | 9 | -16.164 | -16.164
CCc1nnc(NC(=O)CCl)s1 [PCM-0102166, CCc1nnc(NC(=O)CCl)s1] | 0 | 21 | -16.086 | -16.086
Cc1ccc(-c2csc(NC(=O)CCl)n2)cc1 [PCM-0102168, Cc1ccc(-c2csc(NC(=O)CCl)n2)cc1] | 0 | 40 | -15.760 | -15.760
